According to patent publication US9944607B2, “Thiohydantoin derivatives and uses thereof” (Whitehead Institute for Biomedical Research, priority 2012, dated 2018):
≈ marks a conversion by molar mass, not a printed value. Read-outs that look alike come from different tables or passages of the source. One block for each molecule: values may come before it.

Key:
Candida albicans CaCi-2 = test: Primary assay: C. albicans CaCi-2 growth inhibition (Alamar Blue); assay type: cell-based; conditions: for Drop in activity / potency relative to hit CID3889161: C. albicans growth inhibition; for Activity against C. albicans: CaCi-2, or both test strains (CaCi-2, CaCi-17) where the sentence names none; for Growth Inhibition Activity, IC50 (μM), C. albicans (n = 3) CaCi-2 / IC50: 48 hours, tested up to 26 μM, n = 3; for IC50: read-out: Growth Inhibition Activity, IC50 (μM), C. albicans (n = 3) CaCi-2
Candida albicans CaCi-17 = test: Primary assay: C. albicans CaCi-17 growth inhibition (Alamar Blue); assay type: cell-based; conditions: for Growth Inhibition Activity, IC50 (μM), C. albicans (n = 3) CaCi-17 / IC50: 48 hours, tested up to 26 μM, n = 3; for IC50: read-out: Growth Inhibition Activity, IC50 (μM), C. albicans (n = 3) CaCi-17
[1] = tested on: NIH-3T3 mammalian fibroblasts; test: Counterscreen mammalian cell toxicity assay (Alamar Blue); assay type: cell-based, murine; conditions: n = 1, 48 hours, tested up to 26 μM; for IC50: read-out: Growth Inhibition Activity, IC50 (μM), 3T3 Fibroblasts (n = 1)
Experimental: Quiescent murine fibroblasts were subjected to incubation with compounds of interest for 48 hours. Subsequent cell viability was determined via measuring Alamar Blue fluorescence.
Procedures • After overnight culture, pin compounds into wells at 100 nL/well using the CyBio CyBi-Well pinning instrument. • Return the plates to the tissue culture incubator and incubate the culture for an additional 48 hours at 37° C. under 5% CO2. • At the completion of this incubation, add Alamar Blue solution diluted 1:40 in PBS to each well (10 μL/well) to achieve a final dilution of 1:200. • Incubate the plates for an additional 2-3 hours at 37° C. under 5% CO2. • Read the Relative Fluorescence Intensity (RFU) of wells on a standard plate reader as a measure of relative cell growth. […] 4.4.

[2] = Solubility in PBS pH 7.4 with 1% DMSO; conditions: for solubility at 24 h: phosphate buffered saline with 1% DMSO, pH 7.4, aqueous buffer, kinetic from dmso stock
Experimental: Solubility was determined in phosphate buffered saline (PBS) pH 7.4 with 1% DMSO. Each compound was prepared in duplicate at 100 μM in both 100% DMSO and PBS with 1% DMSO. Compounds were allowed to equilibrate at room temperature with a 250 rpm orbital shake for 24 hours. After equilibration, samples were analyzed by UPLC-MS (Waters, Milford, Mass.) with compounds detected by SIR detection on a single quadrupole mass spectrometer. The DMSO samples were used to create a two-point calibration curve to which the response in PBS was fit.

[3] = Table 4, PBS pH 7.4 with 1% DMSO, 24 hours, room temperature

SMILES: CCOC(=O)N1C(=O)C2(CCOCC2)N(c2ccc(C)cc2)C1=S [CID 56604818]
- Drop in activity / potency relative to hit CID3889161 (Candida albicans CaCi-2): 100 fold

SMILES: CCOC(=O)N1C(=S)N(c2ccc(C)cc2)C(=O)C12CCCCC2 [CID 56604852]
- Activity against C. albicans (Candida albicans CaCi-2): inactive

SMILES: Cc1ccc(N2C(=S)N(C(=O)Oc3ccccc3)C(=O)C23CCCCC3)cc1 [CID 56604875]
- Activity against C. albicans CaCi-17 as worded in the text (Candida albicans CaCi-17): no activity
- Activity against C. albicans (Candida albicans CaCi-2): no activity

SMILES: CCOC(=O)N1C(=O)C2(CCCCC2)N(Cc2ccccc2)C1=S [CID 56604878]
- Drop in activity / potency relative to hit CID3889161 (Candida albicans CaCi-2): 10 fold

SMILES: Cc1ccc(N2C(=S)NC(=O)C23CCCCC3)cc1 [CID 56604892]
- Activity against C. albicans (Candida albicans CaCi-2): failed to inhibit C. albicans growth

- Growth Inhibition Activity, IC50 (μM), C. albicans (n = 3) CaCi-17 (Candida albicans CaCi-17; Table 7): inactive
- Growth Inhibition Activity, IC50 (μM), C. albicans (n = 3) CaCi-2 (Candida albicans CaCi-2; Table 7): inactive
- solubility at 24 h [2]: > 100 µM
SMILES: Cc1ccc(N2CC(=O)NC2=O)cc1 [compound 759335]
- Growth Inhibition Activity, IC50 (μM), 3T3 Fibroblasts (n = 1) ([1]; Table 7): Inactive

- Growth Inhibition Activity, IC50 (μM), C. albicans (n = 3) CaCi-17 (Candida albicans CaCi-17; Table 7): inactive
- Growth Inhibition Activity, IC50 (μM), C. albicans (n = 3) CaCi-2 (Candida albicans CaCi-2; Table 7): inactive
- solubility at 24 h [2]: 79 µM (≈ 20.6 µg/mL)
SMILES: O=C1NC(=S)N(c2ccccc2)C12CCCCC2 [compound 823120]
- Growth Inhibition Activity, IC50 (μM), 3T3 Fibroblasts (n = 1) ([1]; Table 7): Inactive

SMILES: COC(=O)N1C(=O)C2(CCCCC2)N(c2ccc(C)cc2)C1=S [compound 3951437]
- IC50 (Candida albicans CaCi-17; Table 3): 17.1 µM
- Growth Inhibition Activity, IC50 (μM), 3T3 Fibroblasts (n = 1) ([1]; Table 3): Inactive
- IC50 (Candida albicans CaCi-2; Table 3): 1.9 µM

- Growth Inhibition Activity, IC50 (μM), C. albicans (n = 3) CaCi-17 (Candida albicans CaCi-17; Table 7): inactive
- Growth Inhibition Activity, IC50 (μM), C. albicans (n = 3) CaCi-2 (Candida albicans CaCi-2; Table 7): inactive
- solubility at 24 h [2]: > 100 µM
SMILES: O=C1NC(=S)N(Cc2ccccc2)C12CCCCC2 [compound 14297244]
- Growth Inhibition Activity, IC50 (μM), 3T3 Fibroblasts (n = 1) ([1]; Table 7): Inactive

SMILES: CCOC(=O)N1C(=O)C2(CCCCC2)N(c2ccccc2C)C1=S [compound 24052146]
- IC50 (Candida albicans CaCi-17; Table 4): 23.9 µM
- Growth Inhibition Activity, IC50 (μM), 3T3 Fibroblasts (n = 1) ([1]; Table 4): Inactive
- IC50 (Candida albicans CaCi-2; Table 4): 1.2 µM
- PBS Solubility [2, 3]: 18 µM

- Growth Inhibition Activity, IC50 (μM), C. albicans (n = 3) CaCi-17 (Candida albicans CaCi-17; Table 7): inactive
- Growth Inhibition Activity, IC50 (μM), C. albicans (n = 3) CaCi-2 (Candida albicans CaCi-2; Table 7): inactive
- solubility at 24 h [2]: 62 µM (≈ 15.3 µg/mL)
SMILES: Cc1ccc(N2C(=S)NC(=O)C23CCC3)cc1 [compound 56604811]
- Growth Inhibition Activity, IC50 (μM), 3T3 Fibroblasts (n = 1) ([1]; Table 7): Inactive

- IC50 (Candida albicans CaCi-17; Table 4): 16.2 µM
- IC50 (Candida albicans CaCi-2; Table 4): 0.8 µM
- PBS Solubility ([2]; pH 7.4): <1.0 µM
SMILES: CCOC(=O)N1C(=O)C2(CCCCC2)N(c2ccc(C(F)(F)F)cc2)C1=S [compound 56604813]
- IC50 ([1]; Table 4): 12.5 µM

- Growth Inhibition Activity, IC50 (μM), C. albicans (n = 3) CaCi-17 (Candida albicans CaCi-17; Table 3): inactive
- Growth Inhibition Activity, IC50 (μM), C. albicans (n = 3) CaCi-2 (Candida albicans CaCi-2; Table 3): inactive
- PBS Solubility ([2]; pH 7.4): <1.0 µM
SMILES: CCCCN1C(=O)C2(CCCCC2)N(c2ccc(C)cc2)C1=S [compound 56604814]
- IC50 ([1]; Table 3): 24.2 µM

SMILES: CCOC(=O)N1C(=O)C2(CCCCC2)N(c2ccc(C(C)C)cc2)C1=S [compound 56604817]
- Growth Inhibition Activity, IC50 (μM), C. albicans (n = 3) CaCi-17 (Candida albicans CaCi-17; Table 4): inactive
- IC50 ([1]; Table 4): 13.8 µM
- Growth Inhibition Activity, IC50 (μM), C. albicans (n = 3) CaCi-2 (Candida albicans CaCi-2; Table 4): inactive
- PBS Solubility [2, 3]: <1.0 µM

- Growth Inhibition Activity, IC50 (μM), C. albicans (n = 3) CaCi-17 (Candida albicans CaCi-17; Table 5): inactive
- IC50 (Candida albicans CaCi-2; Table 5): 20.6 µM
- PBS Solubility ([2]; pH 7.4): 28.5 µM
SMILES: CCOC(=O)N1C(=O)C2(CCOCC2)N(c2ccc(C)cc2)C1=S [compound 56604818]
- Growth Inhibition Activity, IC50 (μM), 3T3 Fibroblasts (n = 1) ([1]; Table 5): Inactive
